Several values for one entry are separate records, joined by “and”; a condition that tells them apart may be missing. Identical values can stand only once. Where a SMILES comes first, the peptide text is derived from it. [ ]: non-standard residue; d: D form. d2Nal = N[C@H](Cc1ccc2ccccc2c1)C(=O)O; Orn = NCCC[C@H](N)C(=O)O
What was measured:
[1] = target: T1, Endothelin receptor type B (Rattus norvegicus, UniProt P21451); assay: Effective concentration against Endothelin B receptor from rat cerebellum; assay type: tissue-based
T1 sequence (P21451 whole entry): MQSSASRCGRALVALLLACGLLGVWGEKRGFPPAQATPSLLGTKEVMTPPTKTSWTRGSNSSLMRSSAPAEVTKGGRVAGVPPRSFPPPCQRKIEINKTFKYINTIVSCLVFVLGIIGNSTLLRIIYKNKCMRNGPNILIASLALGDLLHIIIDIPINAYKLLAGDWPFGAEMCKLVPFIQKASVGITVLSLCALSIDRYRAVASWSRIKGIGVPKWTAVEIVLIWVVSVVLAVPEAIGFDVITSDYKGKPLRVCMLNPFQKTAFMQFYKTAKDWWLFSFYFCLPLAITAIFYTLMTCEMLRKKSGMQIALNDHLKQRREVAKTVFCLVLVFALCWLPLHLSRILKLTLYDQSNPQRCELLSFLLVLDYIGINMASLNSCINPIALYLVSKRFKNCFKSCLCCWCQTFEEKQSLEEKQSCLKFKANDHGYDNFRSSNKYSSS

Endothelin receptor = target: T2, Endothelin receptor (Rattus norvegicus, UniProt P26684+P21451); assay: Binding affinity against Endothelin receptor from rat heart ventricle; assay type: protein assay
T2 sequence (P26684 whole entry): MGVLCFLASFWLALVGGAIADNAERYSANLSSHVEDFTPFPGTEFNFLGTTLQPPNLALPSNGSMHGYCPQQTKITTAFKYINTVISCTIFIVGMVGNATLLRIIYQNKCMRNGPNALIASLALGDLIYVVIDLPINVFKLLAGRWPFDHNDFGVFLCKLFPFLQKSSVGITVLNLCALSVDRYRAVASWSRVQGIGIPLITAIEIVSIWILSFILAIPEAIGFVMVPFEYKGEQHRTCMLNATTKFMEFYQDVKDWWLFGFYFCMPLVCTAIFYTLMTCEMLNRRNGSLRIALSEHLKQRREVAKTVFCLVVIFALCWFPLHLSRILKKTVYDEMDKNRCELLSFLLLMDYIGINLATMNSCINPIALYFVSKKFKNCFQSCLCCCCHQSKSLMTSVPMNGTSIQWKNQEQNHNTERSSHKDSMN
T2 sequence (P21451 whole entry): T1 sequence (P21451 whole entry)

Oryctolagus cuniculus = species on record: Oryctolagus cuniculus; assay: Inhibition of ET-1 stimulated arachidonic acid release in rabbit renal artery vascular smooth muscle cells; assay type: functional

| Compound | IC50 [1] | IC50 (Endothelin receptor) | IC50 (Oryctolagus cuniculus) |
| --- | --- | --- | --- |
| CC[C@H](C)[C@H](NC(=O)[C@H](CC(=O)O)NC(=O)[C@H](CC(C)C)NC(=O)[C@@H](Cc1ccccc1)NC(C)=O)C(=O)N[C@@H](Cc1c[nH]c2ccccc12)C(=O)O (Ac-[dF]LDIW-OH) | > 10000 nM | 24500 nM | – |
| CC[C@H](C)[C@H](NC(=O)[C@H](CC(=O)O)NC(=O)[C@H](CC(C)C)NC(=O)[C@@H](Cc1ccccc1)NC(C)=O)C(=O)N[C@@H](CCCCN)C(=O)N[C@@H](Cc1c[nH]c2ccccc12)C(=O)O | – | > 50000 nM | – |
| Ac-FLDIIW-OH | 18500 nM | – | – |
| CC[C@H](C)[C@H](NC(=O)[C@@H](NC(=O)[C@@H](Cc1ccccc1)NC(C)=O)[C@@H](C)CC)C(=O)N[C@@H](Cc1c[nH]c2ccccc12)C(=O)O (Ac-[dF]IIW-OH) | > 10000 nM | – | – |
| CC[C@H](C)[C@H](NC(=O)[C@H](CC(=O)O)NC(=O)[C@H](CC(C)C)NC(=O)[C@@H](Cc1ccccc1)NC(C)=O)C(=O)N[C@H](C(=O)NC(Cc1cnc[nH]1)C(=O)O)[C@@H](C)CC (mixture of isomers) | > 10000 nM | – | – |
| CC[C@H](C)[C@H](NC(=O)[C@@H](Cc1ccccc1)NC(C)=O)C(=O)N[C@@H](Cc1c[nH]c2ccccc12)C(=O)O (Ac-[dF]-Ile-Trp-OH) | > 10000 nM | – | – |
| CC[C@H](C)[C@H](NC(=O)[C@H](CC(=O)O)NC(=O)[C@H](CC(C)C)NC(=O)[C@@H](Cc1ccccc1)NC(C)=O)C(=O)N[C@@H](CCC(=O)O)C(=O)N[C@@H](Cc1c[nH]c2ccccc12)C(=O)O | – | 5200 nM | – |
| CC[C@H](C)[C@H](NC(=O)[C@H](CCCCN)NC(=O)[C@H](CC(=O)O)NC(=O)[C@H](CC(C)C)NC(=O)[C@@H](Cc1ccccc1)NC(C)=O)C(=O)N[C@@H](Cc1c[nH]c2ccccc12)C(=O)O | > 10000 nM | > 50000 nM | – |
| CC[C@H](C)[C@H](NC(=O)[C@H](CC(=O)O)NC(=O)[C@H](CC(C)C)NC(=O)[C@@H](Cc1ccc(O)cc1)NC(C)=O)C(=O)N[C@H](C(=O)N[C@@H](Cc1c[nH]c2ccccc12)C(=O)O)[C@@H](C)CC (Ac-[dY]LDIIW-OH) | 7000 nM | – | 250 nM |
| CC[C@H](C)[C@H](NC(=O)[C@H](CC(=O)O)NC(=O)[C@H](CC(C)C)NC(=O)[C@@H](Cc1ccccc1)NC(C)=O)C(=O)N[C@@H](C)C(=O)N[C@@H](Cc1c[nH]c2ccccc12)C(=O)O (Ac-[dF]LDIAW-OH) | > 10000 nM | 6830 nM | > 10000 nM |
| CC[C@H](C)[C@H](NC(=O)[C@H](CCC(=O)O)NC(=O)[C@H](CC(=O)O)NC(=O)[C@H](CC(C)C)NC(=O)[C@@H](Cc1ccccc1)NC(C)=O)C(=O)N[C@@H](Cc1c[nH]c2ccccc12)C(=O)O | > 10000 nM | 9000 nM | > 10000 nM |
| CC[C@H](C)[C@H](NC(=O)[C@H](CC(=O)O)NC(=O)[C@H](CC(C)C)NC(=O)[C@@H](Cc1ccccc1)NC(C)=O)C(=O)N[C@H](C(=O)N[C@@H](Cc1csc2ccccc12)C(=O)O)[C@@H](C)CC | 9800 nM | 3800 nM | > 10000 nM |
| CC[C@H](C)[C@H](NC(=O)[C@H](CC(=O)O)NC(=O)[C@@H](CC(C)C)NC(=O)[C@H](Cc1c[nH]cn1)NC(C)=O)C(=O)N[C@H](C(=O)N[C@@H](Cc1c[nH]c2ccccc12)C(=O)O)[C@@H](C)CC | – | 39000 nM | – |
| CC[C@H](C)[C@H](NC(=O)[C@H](CC(=O)O)NC(=O)[C@H](CC(C)C)NC(=O)[C@H](Cc1c[nH]cn1)NC(C)=O)C(=O)N[C@H](C(=O)N[C@H](Cc1c[nH]c2ccccc12)C(=O)O)[C@@H](C)CC | – | > 50000 nM | – |
| CC[C@H](C)[C@H](NC(=O)[C@H](CC(=O)O)NC(=O)[C@H](CC(C)C)NC(=O)[C@@H](Cc1ccc2ccccc2c1)NC(C)=O)C(=O)N[C@H](C(=O)N[C@@H](Cc1c[nH]c2ccccc12)C(=O)O)[C@@H](C)CC (Ac-[d2Nal]LDIIW-OH) | – | – | 1900 nM |
| CC[C@H](C)[C@H](NC(=O)[C@H](CCCCN)NC(=O)[C@H](CC(C)C)NC(=O)[C@@H](Cc1ccccc1)NC(C)=O)C(=O)N[C@H](C(=O)N[C@@H](Cc1c[nH]c2ccccc12)C(=O)O)[C@@H](C)CC | > 10000 nM | 12000 nM | – |
| CC[C@@H](C)[C@@H](NC(=O)[C@H](CC(=O)O)NC(=O)[C@H](CC(C)C)NC(=O)[C@H](Cc1c[nH]cn1)NC(C)=O)C(=O)N[C@H](C(=O)N[C@@H](Cc1c[nH]c2ccccc12)C(=O)O)[C@@H](C)CC | – | 169000 nM | – |
| CC[C@H](C)[C@H](NC(=O)[C@H](Cc1ccccc1)NC(=O)[C@H](CC(=O)O)NC(=O)[C@@H](Cc1ccccc1)NC(C)=O)C(=O)N[C@@H](Cc1c[nH]c2ccccc12)C(=O)O (Ac-[dF]DFIW-OH) | 4600 nM | – | – |
| CC[C@H](C)[C@H](NC(=O)[C@H](CC(=O)O)NC(=O)[C@H](CC(C)C)NC(=O)[C@@H](Cc1c[nH]cn1)NC(C)=O)C(=O)N[C@H](C(=O)N[C@@H](Cc1c[nH]c2ccccc12)C(=O)O)[C@@H](C)CC | 9100 nM | 4100 nM and 4500 nM | – |
| CC[C@H](C)[C@H](NC(=O)[C@H](CC(=O)O)NC(=O)[C@@H](Cc1ccccc1)NC(C)=O)C(=O)N[C@H](C(=O)N[C@@H](Cc1c[nH]c2ccccc12)C(=O)O)[C@@H](C)CC (Ac-[dF]DIIW-OH) | – | 2150 nM | – |
| CC[C@H](C)[C@H](NC(=O)[C@H](Cc1ccc(O)cc1)NC(=O)[C@@H](Cc1ccccc1)NC(C)=O)C(=O)N[C@H](C(=O)N[C@@H](Cc1c[nH]c2ccccc12)C(=O)O)[C@@H](C)CC | > 10000 nM | – | – |

Next, values leading:

| IC50 [1] | IC50 (Endothelin receptor) | IC50 (Oryctolagus cuniculus) | Compound |
| --- | --- | --- | --- |
| 2600 nM | – | – | CC[C@H](C)[C@H](NC(=O)[C@H](CC(=O)O)NC(=O)[C@H](CC(C)C)NC(=O)[C@@H](N)Cc1ccccc1)C(=O)N[C@H](C(=O)N[C@@H](Cc1c[nH]c2ccccc12)C(=O)O)[C@@H](C)CC |
| 20 nM | – | 2200 nM | CC[C@H](C)[C@H](NC(=O)[C@H](CC(=O)O)NC(=O)[C@H](Cc1ccccc1)NC(=O)[C@@H](Cc1ccccc1)NC(C)=O)C(=O)N[C@H](C(=O)N[C@@H](Cc1c[nH]c2ccccc12)C(=O)O)[C@@H](C)CC (stereo in doubt; 21) |
| 150 nM | – | – | CC[C@H](C)[C@H](NC(=O)[C@H](CC(=O)O)NC(=O)[C@H](CC(C)C)NC(=O)[C@@H](Cc1ccccc1)NC(C)=O)C(=O)N[C@H](C(=O)N[C@@H](Cc1ccc(O)cc1)C(=O)O)[C@@H](C)CC (Ac-[dF]LDIIY-OH) |
| 2600 nM | 12400 nM | – | CC[C@H](C)[C@H](NC(=O)[C@H](CC(=O)O)NC(=O)[C@H](CC(C)C)NC(=O)[C@H](N)Cc1ccccc1)C(=O)N[C@H](C(=O)N[C@@H](Cc1c[nH]c2ccccc12)C(=O)O)[C@@H](C)CC |
| 840 nM | 740 nM | 600 nM | CC[C@H](C)[C@H](NC(=O)[C@H](CC(=O)O)NC(=O)[C@H](CCC(=O)O)NC(=O)[C@@H](Cc1ccccc1)NC(C)=O)C(=O)N[C@@H](Cc1c[nH]c2ccccc12)C(=O)O |
| 36 nM | 380 nM | – | CC[C@H](C)[C@H](NC(=O)[C@H](Cc1ccccc1)NC(=O)[C@H](CC(C)C)NC(=O)[C@@H](Cc1ccccc1)NC(C)=O)C(=O)N[C@H](C(=O)N[C@@H](Cc1c[nH]c2ccccc12)C(=O)O)[C@@H](C)CC (Ac-[dF]LFIIW-OH) |
| 60 nM | 330 nM | – | CC[C@H](C)[C@H](NC(=O)[C@H](CC(=O)O)NC(=O)[C@H](Cc1ccccc1)NC(=O)[C@@H](Cc1ccccc1)NC(C)=O)C(=O)N[C@H](C(=O)N[C@@H](Cc1c[nH]c2ccccc12)C(=O)O)[C@@H](C)CC (stereo in doubt; 20) |
| 450 nM | 1610 nM | 1500 nM | CC[C@H](C)[C@H](NC(=O)[C@H](C)NC(=O)[C@H](CC(=O)O)NC(=O)[C@H](CC(C)C)NC(=O)[C@@H](Cc1ccccc1)NC(C)=O)C(=O)N[C@@H](Cc1c[nH]c2ccccc12)C(=O)O (Ac-[dF]LDAIW-OH) |
| 2450 nM | 680 nM | – | CC[C@H](C)[C@H](NC(=O)[C@H](CC(=O)O)NC(=O)[C@H](CCCN)NC(=O)[C@@H](Cc1ccccc1)NC(C)=O)C(=O)N[C@H](C(=O)N[C@@H](Cc1c[nH]c2ccccc12)C(=O)O)[C@@H](C)CC (Ac-[dF][Orn]DIIW-OH) |
| 290 nM | 420 nM | 330 nM | CC[C@H](C)[C@H](NC(=O)[C@H](CC(=O)O)NC(=O)[C@H](C)NC(=O)[C@@H](Cc1ccccc1)NC(C)=O)C(=O)N[C@H](C(=O)N[C@@H](Cc1c[nH]c2ccccc12)C(=O)O)[C@@H](C)CC (Ac-[dF]ADIIW-OH) |
| 2000 nM | 740 nM | – | CC[C@H](C)[C@H](NC(=O)[C@H](CC(=O)O)NC(=O)[C@H](CC(C)C)NC(=O)[C@@H](Cc1ccccc1)NC(C)=O)C(=O)N[C@H](C(=O)N[C@@H](Cc1c[nH]c2ccccc12)C(=O)O)[C@@H](C)CC (Ac-[dF]LDIIW-OH) |
